Measurements taken from patent US10857128B2, “Methods and compositions for treating inflammatory diseases” (Helmholtz Zentrum München Deutsches Forschungszentrum für …, priority 2017, dated 2020).

Legend:
[1] = test system: allergic airway inflammation; assay: Ovalbumin-induced allergic airway inflammation (AAI) in mice with oral D-tryptophan; type: in vivo, Balb/c mice
Description: Isolation of intestinal lamina propria cells. Total colons were excised from mice, removed from mesenteries, opened longitudinally and cut into 2 cm long pieces that were incubated for 30 min in 30 mM EDTA in PBS on ice and then shaken vigorously with PBS to remove epithelial cells. After further cutting into small pieces with sharp scissors these were digested at 37° C. in RMPI supplemented with 1 mg/mL collagenase D (Roche Diagnostics, Mannheim, Germany) and 10 mg/ml DNAse I (Sigma-Aldrich, St. Louis, USA). Cells were separated by a 40/80% (w/v) Percoll (GE Healthcare, Chalfont St. Giles, UK) density centrifugation step and washed prior to staining for flow cytometry analysis.
Costimulatory molecules on human DCs. The following primary monoclonal antibodies were used: CD83 fluorescein isothiocyanate (FITC); CD1a phycoerythrin (PE); CD86-FITC; CD80-PE; CD14 allophycocyanine (APC); CD40-APC; CD3-peridinin chlorophyll protein (PerCP); HLA-DR-PerCP; mouse immunoglobulins G1 (IgG1) mouse immunoglobulins G1 (IgG1) κ were used as isotype controls using the corresponding fluorochromes (all purchased from BD Biosciences, Heidelberg, Germany). To account for donor dependent variability of DC surface markers, all data were normalized to the expression induced by LPS which was set to 100% after subtraction of background values (FACS Canto, FACS DIVA software, Version 5.0.3, BD Biosciences, Heidelberg, Germany). Murine DC subsets and CD4^+ T cells. Single cell suspensions of splenocytes were obtained by filtering spleens through a 70 μm strainer. Samples were stained with CD3-PB (1:200, Biolegend, San Diego, USA), CD4-APC-H7 (BD, 1:400), CD11c-APC-Cy7 (1:100), Mhc-II-Percp-Cy5 (1:100), CD11b-FITC (1:100), CD80-AF647, CD40-APC (1:100). For intracellular cytokines, total spleen cells were stimulated with anti-CD3 (4 μg/mL, BD Bioscience, Heidelberg, Germany) and anti-CD28 (30 ng/mL, BD Bioscience, Heidelberg, Germany) for 16 h. 1×10^6 of total lung cells were stimulated for 16 h with MACSiBead particles coated with anti-CD3 and anti-CD28 using the T cell activation/expansion kit (Miltenyi Biotec, Bergisch Gladbach, Germany) in TexMACS medium (Miltenyi Biotec) according to the manufactures recommendations. Prior to staining, cells were treated with monensin (0.7 μL/mL, BD Golgi Stop, BD Bioscience, Heidelberg, Germany) for 6 h at 37° C. and intracellularly stained for II-4-PE (1:100, eBioscience, Vienna, Austria according to the manufacturer's protocols. Intracellular staining for Foxp3 was performed by using the Foxp3/Transcription Factor Staining buffer set (eBiosciences, Vienna, Austria) according to the manufacturer's recommendations.
(§1) Assessment of cytokines by cytometric bead array. Levels of II4, II5 and II13 were analysed in BALF and cell culture supernatants using an enhanced cytometric bead array (eCBA, Fex Set Kits, BD Biosciences, Franklin Lakes, N.J., USA) according to the manufacturer's guidelines.
Murine regulatory T cells. Cells were preincubated with Fc-Block (BD Bioscience, Heidelberg, Germany) for 5 min and stained for 20 min with the following antibodies: FITC-conjugated anti-CD3, Alexa-Fluor700-conjugated anti-CD4 and APC-eFluor780-conjugated CD45.2. For intracellular staining, cells were fixed and permeabilized with a commercially available fixation/permeabilization buffer (eBioscience, Vienna, Austria). LIVE/DEAD fixable Aqua dead stain kit (Invitrogen, Carlsbad, USA) was used prior to fixation. Intracellular staining was performed with PerCP-Cy5.5-conjugated anti-Foxp3 and Helios. Gates were set on live CD45^+CD3^+CD4^+ T cells. All antibodies were from eBioscience (Vienna, Austria). Cells were analyzed with a flow cytometer (Fortessa and LSRII, BD Bioscience, Heidelberg, Germany) and analyzed with Flowjo software (Flowjo LLC, Ashland, USA).
Induction of allergic airway inflammation. […]

[2] = test system: murine naïve CD4+ T cells; assay: In vitro differentiation of murine primary T cells (Th1, Th2, Treg); type: cell-based, Balb/c mice; conditions: 10 or 50 μM D-Trp
Text: Differentiation of murine primary T cells. Murine spleens from female Balb/c mice were filtered through a 40 μm filter to generate single cell suspensions. These were then subjected to red blood cell lysis by using RBC lysis buffer (Biolegend, San Diego, USA) according to the manufacturer's recommendations. Afterwards, naïve CD4^+ T cells were isolated via magnetic-activated cell sorting (MACS) using the naïve CD4^+ T cell isolation kit (Miltenyi Biotec, Bergisch-Gladbach, Germany). The resulting naïve CD4^+ T cells were cultured in 96 wells plates (1×10^6 cells/ml Medium) in TexMACS medium supplemented with 10% FCS, 0.01 mM 2-Mercaptoethanol, rIL-2 (10 ng/ml) as well as MACSiBead particles with anti-CD3 and anti-CD28 (1×10^6 beads per 1×10^6 cells) (all Miltenyi Biotec). Cells were differentiated over a period of 6 days towards Th1 (10 ng/ml IL12 and 10 μg/ml anti-IL4, derived from Cytobox Th1), Th2 (10 ng/ml II4 and 10 μg/ml anti-Ifnγ, derived from Cytobox Th2) and Treg (5 ng/ml) (all Miltenyi Biotec). Differentiation of cells was assessed by flow cytometry (see FIG. 15 for gating strategy), enhanced cytometric bead array (CBA) from cell culture supernatants and qRT-PCR. Prior to CBA and flow cytometry, cells were stimulated with monensin (0.7 μL/mL, BD Golgi Stop, BD Bioscience, Heidelberg, Germany) for 4 h at 37° C. in the prescence of lonomycin (500 ng/ml, Sigma Aldrich, Missouri, USA) and PMA (5 ng/ml, Sigma Aldrich, Missouri, USA).
as §1
Gene expression analysis. Total RNA was isolated from homogenized lung tissue or cell culture using the miRNeasy Micro Kit according to manufacturer's instructions (Qiagen, Venlo, Netherlands). Concentrations were determined using a NanoDrop® ND-1000 (NanoDrop Technologies, Erlangen, Germany) spectrophotometer. mRNA was transcribed to cDNA with the QuantiTect Rev. Transcription kit (Qiagen, Venlo, Netherlands) and PCR for specific genes was performed on a LightCycler 480 platform with Light Cycler 480 SYBR Green I Mastermix (Roche, Mannheim, Germany).

[3] = AAI mice, 50 mM in drinking water

## N[C@H](Cc1c[nH]c2ccccc12)C(=O)O [D-tryptophan]
[1]; [3]
  Helios+ Treg (lung): significantly increased
  II-4 producing T cells (lung): reduced
  Ifn-g-producing Th1 cells (lung): not
  airway hyperreactivity to methacholine: improved
  eosinophils in BALF: reduction
  total Foxp3+ cells (lung): remained unchanged
[1]; AAI mice, 50 mM in drinking water from 3 days before sensitization
  total BALF cells: lowered
[1]; AAI mice, 50 mM in drinking water, (trend)
  II-4 levels in BALF: reduced
[1]; supplemented AAI mice compared to non-supplemented AAI mice
  frequency of Foxp3+ T cells in the colon: locally increased
[2]; 6 days
  Th1 differentiation: remained unaffected
  Th2 cell differentiation: reduced
[2]; Th1 conditions
  lfng expression: remained unaffected
[2]; Th2 conditions
  II-4, Gata3 expression and II-13 secretion: reduced
[2]; Treg conditions
  Foxp3 expression of Treg cells on mRNA and protein level: increased
